Results taken from patent US9435795B2, “Enhanced deposition of chromogens utilizing pyrimidine analogs” (Ventana Medical Systems, Inc., priority 2010, dated 2016).

Legend:
[1] = Compatibility and stability of reformulated DAB Chromogen solution with additive; assay type: physicochemical; conditions: higher concentrations of imidazole; 50 mM L-histidine
[2] = target: T1, ultraView HRP multimer (Armoracia rusticana, UniProt P00433); experiment: Michaelis-Menten kinetics of HRP-oxidized DAB with enhanced DAB chromogen mixtures; assay type: biochemical, horseradish
T1 construct: purchased Ventana Medical Systems (ultraView kit component)
T1 sequence (P00433 31-338 limits assumed): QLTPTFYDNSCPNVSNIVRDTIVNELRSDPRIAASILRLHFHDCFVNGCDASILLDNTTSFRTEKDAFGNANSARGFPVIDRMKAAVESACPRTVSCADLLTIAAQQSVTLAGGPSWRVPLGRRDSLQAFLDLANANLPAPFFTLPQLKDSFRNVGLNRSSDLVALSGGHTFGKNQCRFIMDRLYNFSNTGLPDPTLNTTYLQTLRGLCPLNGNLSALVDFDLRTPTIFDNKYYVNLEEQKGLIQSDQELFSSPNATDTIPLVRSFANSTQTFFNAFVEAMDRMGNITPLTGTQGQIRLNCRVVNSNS
Experimental: To further study the synergistic effect in the increased apparent Vmax for HRP-oxidized DAB, Michaelis-Menten kinetics were calculated for the best enhanced DAB chromogen mixtures in Table 3. […] The definition of Vmax=kcat·[E]total when the enzyme substrate concentration was at saturation levels. When the concentration of enzyme was kept constant, the apparent Vmax is proportional to kcat (the apparent turnover for HRP or the first order rate constant).

[3] = system: bcl2 in tonsil tissue; experiment: TSA-IHC tissue staining of bcl2 in tonsil tissue (TA-HQ deposition); conditions: 10 mM in DAB Chromogen solution; 16 minute primary Ab incubation
Experimental: Enhanced DAB deposition was evaluated on a TSA-IHC tissue staining of bcl2 in tonsil tissue. […] Tyramide deposition was performed with and without 10 mM 2-hydroxypyrimidine. […] The percent of cells stained with DAB increased in areas with low bcl2 antigen expression. Formalin fixed paraffin embedded tonsil tissue was mounted on Superfrost slides, deparaffinized and antigen retrieved using CC1 bulk reagent (Ventana® p/n 950-124). […] Slides were counterstained using Hematoxylin II (Ventana® p/n 790-2208) and Bluing Reagent (Ventana® p/n760-2037). The slides were dehydrated using gradient alcohols, cover slipped and viewed using a bright field microscope (FIGS. 23-26).

[4] = target: T2, horseradish peroxidase (HRP) (Armoracia rusticana, UniProt P00433); experiment: Plate assay: enhancers added sequentially to ultraView Detection Kit (synergistic/antagonistic effects); assay type: biochemical; conditions: NMO added to mixture 4; 50 mM L-histidine or 10 mM pyrimidine added to mixture 5
T2 construct: purchased VMSI (Ventana Medical Systems, Inc.) 760-500: 253-4290, 253-4292 and 253-4293
Experimental: The same concentration of reagents from the ultraView™ Detection Kit (VMSI 760-500: 253-4290, 253-4292 and 253-4293) were used in 1× Reaction Buffer™ containing 0.1% fish gelatin for each trial. In each trial, the enhancers were added together one at a time.

[5] = system: HER-2 positive CaLu3 carcinoma cell lines; experiment: ISH tissue staining with HER2 DNA probe on HER-2 3-in-1 mouse xenografts; conditions: 10 mM in DAB Chromogen solution; CaLu3 carcinoma cells
Experimental: ISH tissue staining was examined using enhanced DAB solutions. HER-2 3-in-1 mouse xenografts of HER-2 positive carcinoma cell lines CaLu3, ZR-75-1 and MCF7 were treated with HER2 DNA probe (VMSI 480-4495) and stained with the ultraView™ DAB Chromogen solution or an enhanced DAB Chromogen solution containing 10 mM L-histidine (see FIGS. 21-22). […] The increased DAB deposition was marginal for the strongest ISH signals, but signal intensity for the weaker DAB signals was raised throughout the tissue. The same observation was made with enhanced DAB deposition in IHC.

[6] = target: T2, horseradish peroxidase (HRP); experiment: Plate assay: kinetic screening of enhancers of HRP-mediated DAB oxidation (ultraView Detection Kit, OD 455 nm); assay type: biochemical; conditions: for Vmax (apparent, HRP-oxidized DAB): no enhancer 18.50; for Percent increase of apparent Vmax of HRP: relative to uView Vmax without enhancement
Experimental: The additives were directly added to a well containing the necessary reagents from the ultraView™ Detection Kit (VMSI 760-500: 253-4290, 253-4292 and 253-4293) in 1× Reaction Buffer (VMSI 950-300) and 0.1% fish gelatin. Fish gelatin was used to help disperse the oxidized DAB and inhibit its precipitation from solution. The ultraView™ Detection Kit was diluted to measure the formation of oxidized DAB by UV-VIS at 455 nm. Additives were tested at set concentrations to determine enhancement in the DAB oxidation reaction. The data were graphed, and the apparent maximum velocity (Vmax) was calculated at each additive concentration level.

With N[C@@H](Cc1c[nH]cn1)C(=O)O [L-Histidine] the “Precipitation of DAB from reformulated DAB Chromogen solution” value [1] was “caused the precipitation of DAB”, the Vmax ([2]; 10 mM buffer salt with 10 mM pyrimidine, no enhancer 228) was 300 mOD/min and the Vmax ([2]; 50 mM buffer salt with 10 mM 2-hydroxypyrimidine (FIG. 19: also 10 mM boric acid, 10 mM calcium chloride)) was 317 mOD/min. For the same molecule, the “DAB deposition in TSA-IHC staining (in words)” value [3] was “increased the DAB deposition on tissue”, the “Effect on apparent velocity of HRP when added to a preceding assay mixture of Table 2” value [4] was “increased the apparent velocity of HRP” and the “DAB deposition in ISH staining (in words)” value [5] was “increased the deposition of DAB”. The “Vmax (apparent, HRP-oxidized DAB)” value ([6]; enhancer 10 mM) was 21.84 mOD/min, the “Percent increase of apparent Vmax of HRP” value ([6]; enhancer 10 mM) was 18% and the “Vmax (apparent, HRP-oxidized DAB)” value ([6]; enhancer 50 mM, (sat) = reaction rate saturated by start of UV-VIS analysis) was 44.00 mOD/min. The “Percent increase of apparent Vmax of HRP” value ([6]; enhancer 50 mM) was 138% and the “Vmax (apparent, HRP-oxidized DAB)” value ([6]; enhancer 100 mM, (sat) = reaction rate saturated by start of UV-VIS analysis) was 72.00 mOD/min.
